The subject of experiment [1] is BMSC (primary human bone marrow mesenchymal stromal cells). As to the kind of experiment: absolute EC50 for viability; higher = less sensitive.
For experiment [2] the test system is unchanged. As to the kind of experiment: drug sensitivity score (DSS); higher = more sensitive.

`C=CCn1c(=O)c2cnc(Nc3ccc(N4CCN(C)CC4)cc3)nc2n1-c1cccc(C(C)(C)O)n1` [AZD1775]: the “absolute EC50 for viability” value in experiment [1] is more than 10000 nM. In experiment [2], this compound showed a drug sensitivity score of 4.8.
Take `COc1cc2ncnc(Nc3cccc(Cl)c3F)c2cc1OC(=O)N1CCN(C)C[C@H]1C` [AZD3759]: in experiment [1], the “absolute EC50 for viability” value was more than 1000 nM. Also, in experiment [2], the drug sensitivity score worked out at 0.
Taken in the same sequence, the figures for `Cc1[nH]nc(C(F)(F)F)c1Cc1sc2c(c1C(=O)N1C[C@](C)(O)CO1)c(=O)n(C)c(=O)n2C(C)C` [AZD3965] were more than 1000 nM and 0.
For `COc1cc(CCc2cc(NC(=O)c3ccc(N4CC(C)NC(C)C4)cc3)n[nH]2)cc(OC)c1` (configuration not stated) [AZD4547], in that order: more than 1000 nM and 1.
For `C[C@@H]1COCCN1c1cc(C2([S@](C)(=N)=O)CC2)nc(-c2cc[nH]c3nccc2-3)n1` [AZD6738], in that order: more than 25000 nM and 4.6.
On to `CN(C)C(=O)c1ccc(S(=O)(=O)c2ccc(NC(=O)C(C)(O)C(F)(F)F)c(Cl)c2)cc1` (configuration not stated) [AZD7545], for which the “absolute EC50 for viability” value in experiment [1] is more than 10000 nM. Further, in experiment [2], the drug sensitivity score turned out to be 0.
Taken in the same sequence, the figures for `NC(=O)Nc1cc(-c2cccc(F)c2)sc1C(=O)N[C@H]1CCCNC1` [AZD7762] were more than 1000 nM and 7.2.
For `COc1ccc(-c2ccc3c(N4CCOC[C@@H]4C)nc(N4CCOC[C@@H]4C)nc3n2)cc1CO` [AZD8055], in that order: 207 nM and 17.8.
`N#Cc1ccc2[nH]c(O)c(-c3ccc(CN4CCOCC4)cn3)c2c1` [AZD-1080]: the “absolute EC50 for viability” value in experiment [1] was more than 10000 nM. The compound further showed a drug sensitivity score in experiment [2] of 0.
Regarding `Cc1ncc(-c2ccnc(Nc3ccc(S(C)(=O)=O)cc3)n2)n1C(C)C` [AZD-5438], in experiment [1], the “absolute EC50 for viability” value is more than 10000 nM. In experiment [2], this compound returned a drug sensitivity score of 1.5.
Take `Cc1cc([C@@H](C)Nc2ccccc2C(=O)O)c2nc(N3CCOCC3)cc(=O)n2c1` [AZD-6482]: the “absolute EC50 for viability” value in experiment [1] is more than 2500 nM. The compound further had a drug sensitivity score in experiment [2] of 2.1.
Taken in the same sequence, the figures for `C[C@@H](Nc1cc(F)cc(F)c1)c1cc(C(=O)N(C)C)cc2c(=O)cc(N3CCOCC3)oc12` [AZD-8186] were more than 1000 nM and 3.9.
Taken in the same sequence, the figures for `CCN1CCN(Cc2ccc(Nc3ncc(F)c(-c4cc(F)c5nc(C)n(C(C)C)c5c4)n3)nc2)CC1` [Abemaciclib] were more than 2500 nM and 0.
For `CN(C)Cc1c(C(=O)NCCOc2ccc(C(=O)NO)cc2)oc2ccccc12` [Abexinostat], in that order: 1280 nM and 10.1.
Take `C[C@]12CC[C@H](O)CC1=CC[C@@H]1[C@@H]2CC[C@]2(C)C(c3cccnc3)=CC[C@@H]12` [Abiraterone]: the “absolute EC50 for viability” value in experiment [1] was more than 5000 nM. Further, the drug sensitivity score in experiment [2] came out at 0.
For `CC#CC(=O)N1CCC[C@H]1c1nc(-c2ccc(C(=O)Nc3ccccn3)cc2)c2c(N)nccn12` [Acalabrutinib], in that order: more than 1000 nM and 0.
Taken in the same sequence, the figures for `COc1cc(C)c(/C=C/C(C)=C/C=C/C(C)=C/C(=O)O)c(C)c1C` [Acitretin] were more than 10000 nM and 0.
Taken in the same sequence, the figures for `CN(C)C/C=C/C(=O)Nc1cc2c(Nc3ccc(F)c(Cl)c3)ncnc2cc1O[C@H]1CCOC1` [Afatinib] were more than 1000 nM and 2.9.
On to `COc1cccc2c1C(=O)c1c(O)c3c(c(O)c1C2=O)C[C@@](O)(/C(CO)=N/NC(=O)CCCCCN1C(=O)C=CC1=O)C[C@@H]3O[C@H]1C[C@H](N)[C@H](O)[C@H](C)O1` [Aldoxorubicin], for which the “absolute EC50 for viability” value in experiment [1] was determined as 944 nM. The same compound showed a drug sensitivity score in experiment [2] of 7.3.
Consider `CCc1cc2c(cc1N1CCC(N3CCOCC3)CC1)C(C)(C)c1[nH]c3cc(C#N)ccc3c1C2=O` [Alectinib], for which, in experiment [1], the “absolute EC50 for viability” value was more than 1000 nM. Moreover, the drug sensitivity score in experiment [2] was found to be 0.
For `COc1cc(Nc2ncc3c(n2)-c2ccc(Cl)cc2C(c2c(F)cccc2OC)=NC3)ccc1C(=O)O` [Alisertib], in that order: more than 10000 nM and 0.
Taken in the same sequence, the figures for `Oc1ncnc2[nH]ncc12` [Allopurinol] were more than 10000 nM and 0.
For `Cc1nc(NC(=O)N2CCC[C@H]2C(N)=O)sc1-c1ccnc(C(C)(C)C(F)(F)F)c1` [Alpelisib], in that order: more than 2500 nM and 3.4.
For the compound `O=C(Nc1cc(Oc2cc(F)c(NC(=O)C3(C(=O)Nc4ccc(F)cc4)CC3)cc2F)ccn1)C1CC1` [Altiratinib], in experiment [1], the “absolute EC50 for viability” value was more than 10000 nM. The same compound displayed a drug sensitivity score in experiment [2] of 2.9.
Taken in the same sequence, the figures for `CN1CC[C@H](c2c(O)cc(O)c3c(=O)cc(-c4ccccc4Cl)oc23)[C@H](O)C1` [Alvocidib] were 739 nM and 10.8.
Taken in the same sequence, the figures for `CCN(CC)CCNC(=O)c1c(C)[nH]c(/C=C2\C(=O)Nc3ccc(-c4csc(-c5ccccc5)n4)cc32)c1C` [Amcasertib] were 2780 nM and 5.9.
Taken in the same sequence, the figures for `CCC1(c2ccc(N)cc2)CCC(=O)NC1=O` (configuration not stated) [Aminoglutethimide] were more than 10000 nM and 0.
For `COc1cc(NS(C)(=O)=O)ccc1Nc1c2ccccc2nc2ccccc12` [Amsacrine], in experiment [1], the “absolute EC50 for viability” value was more than 10000 nM. Further, the drug sensitivity score in experiment [2] worked out at 2.8.
Taken in the same sequence, the figures for `S=C(NCc1ccc2c(c1)OCO2)N1CCN(c2ncnc3c2oc2ccccc23)CC1` [Amuvatinib] were more than 10000 nM and 0.
Taken in the same sequence, the figures for `O=C1CN2Cc3c(ccc(Cl)c3Cl)N=C2N1` [Anagrelide] were more than 10000 nM and 0.
Taken in the same sequence, the figures for `CC(C)(C#N)c1cc(Cn2cncn2)cc(C(C)(C)C#N)c1` [Anastrozole] were more than 10000 nM and 0.
For the compound `CNC(=O)c1ccc(N2C(=S)N(c3cnc(C#N)c(C(F)(F)F)c3)C(=O)C23CCC3)cc1F` [Apalutamide], the “absolute EC50 for viability” value in experiment [1] was more than 10000 nM. In experiment [2], this compound showed a drug sensitivity score of 0.
Taken in the same sequence, the figures for `N#CC1(c2ccc(NC(=O)c3cccnc3NCc3ccncc3)cc2)CCCC1` [Apatinib] were more than 10000 nM and 0.1.
Taken in the same sequence, the figures for `O=C(Nc1ccc(OC(F)(F)Cl)cc1)c1cnc(N2CC[C@@H](O)C2)c(-c2cc[nH]n2)c1` [Asciminib] were more than 1000 nM and 0.
Taken in the same sequence, the figures for `CC(C)c1c(C(=O)Nc2ccccc2)c(-c2ccccc2)c(-c2ccc(F)cc2)n1CC[C@@H](O)C[C@@H](O)CC(=O)O` [Atorvastatin] were 8180 nM and 3.1.
As for `CC(=O)OC[C@H]1O[C@@H]([S-])[C@H](OC(C)=O)[C@@H](OC(C)=O)[C@@H]1OC(C)=O.CCP(CC)CC.[Au+]` [Auranofin], the “absolute EC50 for viability” value in experiment [1] is 1390 nM. The compound also registered a drug sensitivity score in experiment [2] of 3.3.
For `CNC(=O)c1ccccc1Sc1ccc2c(/C=C/c3ccccn3)n[nH]c2c1` [Axitinib], in that order: more than 10000 nM and 7.9.
For `Nc1ncn([C@@H]2O[C@H](CO)[C@@H](O)[C@H]2O)c(=O)n1` [Azacitidine], in that order: more than 10000 nM and 2.3.
For `Cc1cc(-c2nc(-c3ccc(OC(F)(F)F)cc3)no2)nn1Cc1ccnc(N2CCN(C3CC3)CC2)c1` [BAY 87-2243], in that order: more than 1000 nM and 0.
With `c1ccc2n[se]nc2c1` [BCI], in experiment [1], the “absolute EC50 for viability” value amounted to 2550 nM. In experiment [2], the drug sensitivity score was 14.9.
For `Nc1nc(Nc2ccc3c(c2)CC[C@@H](N2CCCC2)CC3)nn1-c1cc2c(nn1)-c1ccccc1CCC2` [BGB324], in that order: 2490 nM and 6.7.
Taken in the same sequence, the figures for `O=C1CCc2c(Oc3ccc4c(c3)[C@@H]3[C@H](O4)[C@H]3c3nc4cc(C(F)(F)F)ccc4[nH]3)ccnc2N1` [BGB-283] were more than 10000 nM and 4.2.
For `CC[C@@H]1C(=O)N(C)c2cnc(Nc3ccc(C(=O)NC4CCN(C)CC4)cc3OC)nc2N1C1CCCC1` [BI 2536], in that order: more than 1000 nM and 1.9.
On to `COc1c(C)cnc(Cn2cnc3c(Cl)nc(N)nc32)c1C` [BIIB021], for which the “absolute EC50 for viability” value in experiment [1] is 449 nM. The compound further gave a drug sensitivity score in experiment [2] of 12.
For `CC1(C)C(C(=O)Nc2ccc(S(=O)(=O)c3ccc(NC(=O)C4C(C)(C)C4(C)C)cc3)cc2)C1(C)C` [BRD7116], in that order: more than 10000 nM and 0.
For `O=C(Nc1cccc(Nc2ncc(Br)c(NCCc3cnc[nH]3)n2)c1)N1CCCC1` [BX-912], in that order: 2170 nM and 6.7.
For `Cc1ccc(NC(=O)c2ccc(CN3CC[C@H](N(C)C)C3)c(C(F)(F)F)c2)cc1Nc1nccc(-c2cncnc2)n1` [Bafetinib], in that order: more than 1000 nM and 1.9.
For the compound `CCN(CCCOc1ccc2c(Nc3cc(CC(=O)Nc4cccc(F)c4)[nH]n3)ncnc2c1)CCOP(=O)(O)O` [Barasertib], the “absolute EC50 for viability” value in experiment [1] was more than 1000 nM. In addition, in experiment [2], the drug sensitivity score is 0.1.
Taken in the same sequence, the figures for `CCS(=O)(=O)N1CC(CC#N)(n2cc(-c3ncnc4[nH]ccc34)cn2)C1` [Baricitinib] were more than 2500 nM and 0.1.
Taken in the same sequence, the figures for `O=C(/C=C/c1cccc(S(=O)(=O)Nc2ccccc2)c1)NO` [Belinostat] were 2230 nM and 7.2.
For `N#CC(c1ccnc(OCc2ccc(CN3CCOCC3)cc2)n1)c1nc2ccccc2s1` (configuration not stated) [Bentamapimod], in that order: more than 10000 nM and 0.

The values above are taken from the supplement of paper PMC9103864.
